In PMC8123651, “Flavones from Combretum quadrangulare Growing in Vietnam and Their Alpha-Glucosidase Inhibitory Activity” (Molecules, 2021) one finds Inhibition type, IC50 and zone of inhibition data, which are given here for six molecules.

Experiment [1] has as its target T1, alpha-glucosidase (Saccharomyces cerevisiae, UniProt P53341). Briefly: Inhibitory type assay on alpha-glucosidase (Lineweaver–Burk plots). As to conditions: Vmax decreased while Km remained constant. It counts as biochemical. The procedure:
In order to examine the inhibition mechanism of compound 11, their activity was measured at the different concentration of pNPG.
Enzyme inhibition due to various concentrations of the 8 and 11 compounds were evaluated by monitoring the effects of different concentrations of the substrate. For Lineweaver–Burk double reciprocal plots 1/enzyme velocity (1/V) vs. 1/substrate concentration (1/[S]), the inhibition type was determined using various concentrations of pNPG (1 mM, 2 mM, and 4 mM) as a substrate in the presence of different concentrations of the test compounds (0; 4.96; 9.92 and 19.84 µM for 8 and 0; […]; 43.03 and 86.06 µM for 11). The experiments were carried out in 3 replicates. The mixtures were incubated at 37 °C and the optical density was measured at 405 nm every 1 min for 30 min with the Clariostar Labtech microplate reader (Ortenberg, Germany). Optimal concentrations of the tested compound were chosen based on the IC50 value. The inhibition constants were obtained graphically from secondary plots (Microsoft Excel 2010, Washington, WA, USA).

Experiment [2] addresses T1, alpha-glucosidase. Briefly: Alpha-glucosidase inhibition assay (pNPG substrate). It counts as biochemical. As to conditions: means ± standard errors of three independent experiments; read-out: Alpha-glucosidase inhibitory IC50. The procedure:
The alpha-glucosidase (0.2 U/mL) and substrate (5.0 mM p-nitrophenyl-α-D-glucopyranoside) were dissolveed in 100 mM of pH 6.9 sodium phosphate buffer. The inhibitor (50 µL) was preincubated with alpha-glucosidase at 37 °C for 20 min, and then the substrate (40 µL) was added to the reaction mixture. The enzymatic reaction was carried out at 37 °C for 20 min and stopped by adding 0.2 M of Na2CO3 (130 μL). Enzymatic activity was quantified by measuring absorbance at 405 nm. All samples were analyzed in triplicate at five different concentrations around the IC50 values, and the mean values were retained. The inhibition percentage (%) was calculated by the following equation: Inhibition (%)=[1−(Asample/Acontrol)]×100. .

Experiment [3] has as its system methicillin-resistant Staphylococcus aureus (MRSA). Briefly: Antibacterial activity, agar well diffusion method. It counts as cell-based. As to conditions: 50 μg of each compound per well, 8-mm wells, read-out: Diameter of inhibition zone. How it is done: Methicillin-resistant Staphylococcus aureus (MRSA), extended spectrum beta-lactamase-producing Escherichia coli (ESBL-producing E. coli) and the agar well diffusion method were used to evaluate the antibacterial activity of the isolated compounds [29]. The strains were cultured in nutrient broth at 37 °C for 18 h and diluted with steriled 0.9% NaCl to obtain the 1.5 × 10^8 CFU/mL bacterial solution. Then, 100 μL of the bacterial solution was spread on Mueller–Hinton agar (MHA) plate on which 8-mm wells were created aseptically with tips. The isolated compounds were dissolved in dimethyl sulfoxide at the concentration of 1 mg/mL and 50 μL of each compound solution was applied in each well. The plates were incubated at 37 °C for 16–18 h and the diameters of the inhibtion zones were measured. Dimethyl sulfoxide and apramycin were used as controls in this experiment.
For orientation: In agar diffusion tests the substance spreads into inoculated agar from a disc or well.

T1 sequence (P53341 whole entry): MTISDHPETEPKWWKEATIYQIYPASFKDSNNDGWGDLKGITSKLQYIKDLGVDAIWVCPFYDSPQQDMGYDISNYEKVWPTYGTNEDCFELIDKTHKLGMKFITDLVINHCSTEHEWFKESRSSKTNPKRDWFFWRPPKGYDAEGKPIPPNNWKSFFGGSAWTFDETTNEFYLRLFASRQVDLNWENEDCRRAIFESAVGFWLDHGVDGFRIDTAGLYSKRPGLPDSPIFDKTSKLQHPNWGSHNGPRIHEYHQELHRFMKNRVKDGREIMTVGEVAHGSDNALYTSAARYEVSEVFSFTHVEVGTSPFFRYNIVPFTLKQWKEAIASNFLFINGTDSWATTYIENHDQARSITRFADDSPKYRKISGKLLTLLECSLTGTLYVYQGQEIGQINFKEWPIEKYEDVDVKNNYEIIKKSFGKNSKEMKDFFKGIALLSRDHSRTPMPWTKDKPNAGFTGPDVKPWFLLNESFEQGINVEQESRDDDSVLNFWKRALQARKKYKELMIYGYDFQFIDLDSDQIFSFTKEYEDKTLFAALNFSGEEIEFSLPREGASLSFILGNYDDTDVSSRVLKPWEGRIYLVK

On to `COc1c(O)cc(-c2oc3c(Br)c(OC)c(Br)c(O)c3c(=O)c2OC)cc1Br` [Compound 8, 6,8,5′-Tribromoayanin], for which the Inhibition type entry at alpha-glucosidase [1] is “noncompetitive”.

As to isoorientin [Compound 15], the half-inhibitory concentration (IC50) (as a rule, the concentration that gives 50% inhibition) at alpha-glucosidase [2] is over 300 µM.

With `CN[C@@H]1[C@@H](O[C@H]2O[C@H](CO)[C@@H](N)[C@H](O)[C@H]2O)OC2C[C@@H](N)[C@@H](O[C@H]3[C@H](O)[C@@H](O)[C@H](N)C[C@@H]3N)OC2[C@@H]1O` (stereo partly drawn) [apramycin, reference compound], the zone of inhibition (in general, the extent of the growth-free halo in a diffusion test) at 50 µg/disc in experiment [3] was 24 mm.

As for `COc1c(Br)c(O)c2c(=O)c(OC)c(-c3cc(Br)c(O)c(Br)c3)oc2c1Br` [Compound 11, 6,8,3′,5′-Tetrabromokamatakenin], the Inhibition type result at alpha-glucosidase [1] is given as “noncompetitive”.

With vitexin [Compound 16], the concentration for half-maximal inhibition (IC50) at alpha-glucosidase [2] was over 300 µM.

Consider `COc1cc(O)c2c(=O)c(O)c(-c3ccc(OC)c(O)c3)oc2c1` [Compound 5, ombuin], for which the zone of inhibition at 50 µg/disc in experiment [3] is 15 mm.
